In patent US20250000858A1, “FGFR TYROSINE KINASE INHIBITORS FOR THE TREATMENT OF ADVANCED SOLID TUMORS” (JANSSEN PHARMACEUTICA NV, priority 2021, published 2025):
Read-outs that look alike come from different tables or passages of the source.

Tests used:
[1] = Pharmacokinetic assessments (plasma concentrations, erdafitinib exposure; CYP2C9*3/*3 genotype); format: in vivo, human; conditions: subjects with the CYP2C9*3/*3 genotype; 'may increase'
Source text: Therefore, increased adverse reactions are monitored in subjects who are known or suspected to have CYP2C9*3/*3 genotype.

[2] = 144 treated BPC subjects (safety analysis set)
[3] = Broad Panel Cohort, 178 treated subjects, % of subjects, AE outcome of Fatal

COc1cc(OC)cc(N(CCNC(C)C)c2ccc3ncc(-c4cnn(C)c4)nc3c2)c1 [erdafitinib, N-(3,5-dimethoxy-phenyl)-N′-(1-methylethyl)-N-[3-(1-methyl-1H-pyrazol-4-yl)quinoxalin-6-yl]ethane-1,2-diamine]
TEAEs leading to death (13 patients, BPC n=178, IA3): 7.3%
Drug-related serious TEAEs [2]: 6.3%
diarrhea (TEAE) [2]: 54.2%
drug related TEAEs leading to death [2]: no drug related TEAEs leading to death
drug-related TEAEs leading to discontinuation [2]: 3.5%
hyperphosphatemia (TEAE) [2]: 65.3%
stomatitis (TEAE) [2]: 49.3%
TEAEs leading to death [3]: 13 (7.3%)
TEAEs leading to death: Drug-related [3]: 1 (0.6%)
increase of exposure of erdafitinib [1]: 50%
